The record followed here is US20250360087A1, “COMPOSITIONS COMPRISING LIPID DROPLETS ENCAPSULATED WITHIN POLYSACCHARIDE WALLS AND USES THEREOF” (UNIVERSITY OF SOUTH AUSTRALIA, priority 2022, published 2025).

Bounds are passed on as bounds.

For one series, the system named is S. aureus ATCC 25923. The series can be described thus: Minimum inhibitory concentration of rifampicin in S. aureus. It counts as cell-based. Conditions: Staphylococcus aureus, ATCC25923; 24 h, 37° C., turbidity; read-out: MIC, concentration required to inhibit growth.
A further series relates to S. aureus biofilms. The series can be described thus: In vitro biofilm study, crystal violet assay. Format: cell-based, Staphylococcus aureus. As for the experimental part: Bacterial suspension was further diluted 1/15 with broth and subsequently added to the wells of a 96-well plate. The outer wells were filled with PBS (200 μL) for hydration purposes and the second right column contained sterile broth (100 μL) to serve as negative control. The plate was wrapped in aluminium foil and incubated on a 3D rotating platform at 70 rpm at 37° C. for 24 h to grow biofilms. After 24 h incubation, turbid biofilms sitting at the bottom of wells could be assessed visually. The broth in the wells of the plate was aspired gently by a vacuum pump without disturbing the biofilms and the wells were washed with 0.9% Saline (100 μL) twice to remove nonadherent bacteria. […] The plate was wrapped in aluminium foil and incubated on a 3D rotating platform at 70 rpm at 37° C. for 24 h. After 24 h of exposure to the formulations, supernatants were removed gently without disturbing the biofilms by a vacuum pump and the wells were washed with 0.9% Saline (100 μL) twice. Biofilms were fixed by oven heating at 60° C. for 1 h. […] The biofilm biomass of S. aureus was quantified by spectrometry at 595 nm in 96 well plate reader.

Another series relates to RAW 264.7 macrophages. The series can be described thus: Cellular cytotoxicity, MTT assay. Format: cell-based, Murine. Conditions: after 1 h incubation. A general note: Tetrazolium dyes change colour on reduction, which living cells bring about.

Method for RAW 264.7 macrophages: 100 μL of cell suspension at a density of 7000 cells per well was seeded in 96-well plate and incubated (37° C., 5% CO2) for 12 h to allow the attachment of cells. After incubation the supernatant was discarded and replaced with 200 μL of particle solution (in DMEM) at various concentrations (ranging from 10 to 100 μg/mL) and incubated for further 24 h. After incubation, the cells were washed with sterile PBS and 10 μL of MTT (3-(4,5-dimethylthiazol-2-yl)-2,5-diphenyltetrazolium bromide) solvent was added to each well prior to incubation for a further 4 h. Afterward, the supernatant was discarded, and the absorbance was read at OD=540 nm using a microplate reader.
Method for S. aureus ATCC 25923: Single colonies of S. aureus ATCC 25923 were suspended in 0.9% sterile saline to reach approximately 1×10^8 colony forming units (CFU)/mL (equivalent to an optical density of 0.08-0.12 at 600 nm). The bacterial suspension was further diluted 1/100 with broth. Bacterial suspension was added to 96-wells. […] The 96-well plate was incubated at 37° C. for 24 h. The plates were visually assessed for turbidity indicating growth of bacteria.

As to `CO[C@H]1/C=C/O[C@@]2(C)Oc3c(C)c(O)c4c(O)c(c(/C=N/N5CCN(C)CC5)c(O)c4c3C2=O)NC(=O)/C(C)=C\C=C\[C@H](C)[C@H](O)[C@@H](C)[C@@H](O)[C@@H](C)[C@H](OC(C)=O)[C@@H]1C` [rifampicin], the MIC with S. aureus ATCC 25923 was under 0.0156 µg/mL. For the same compound, the biofilm biomass remaining in the series with S. aureus biofilms (exposure to 1 μg/mL of rifampicin) came to 34%. Also, the “reduction in biofilm biomass” value with S. aureus biofilms (rifampicin 16 μg/mL, 24 h) is “up to 82%”. Besides, the biofilm reduction entry with S. aureus biofilms (rifampicin 1 to 16 μg/mL, 24 h) was “more than 50%”.

Consider Triton-X, for which, in the series with RAW 264.7 macrophages, the “cellular viability (positive control)” value was “no cellular viability”.
